This assay concerns the target T1, human GABA A receptor α5β3γ2 (hα5) (Homo sapiens, UniProt P18507+P31644).
T1 construct: expressed in transfected cells; host or cells: HEK293 (transient transfection); membranes prepared from cell pellets
In words: [3H]flumazenil competition binding, human GABA A α5β3γ2 receptors in HEK293 cells. As to conditions: displacement of [3H]flumazenil 0.5 nM; HEK293 cells transiently transfected with human receptors; mean of two determinations. The method, then:
Membrane Preparation and Binding Assay
The affinity of compounds at GABA A receptor subtypes was measured by competition for [3H]flumazenil (85 Ci/mmol; Roche) binding to HEK293 cells expressing rat (stably transfected) or human (transiently transfected) receptors of composition α1β3γ2, α2β3γ2, α3β3γ2 and α5β3γ2.
Cell pellets were suspended in Krebs-tris buffer (4.8 mM KCl, 1.2 mM CaCl2, 1.2 mM MgCl2, 120 mM NaCl, 15 mM Tris; pH 7.5; binding assay buffer), homogenized by polytron for ca. 20 sec on ice and centrifuged for 60 min at 4° C. (50000 g; Sorvall, rotor: SM24=20000 rpm). The cell pellets were resuspended in Krebs-tris buffer and homogenized by polytron for ca. 15 sec on ice. Protein was measured (Bradford method, Bio-Rad) and aliquots of 1 mL were prepared and stored at −80° C.
Radioligand binding assays were carried out in a volume of […] (96-well plates) which contained […] of cell membranes, [3H]flumazenil at a concentration of 1 nM for α1, α2, α3 subunits and 0.5 nM for α5 subunits and the test compound in the range of […]. Nonspecific binding was defined by 10^−5 M diazepam and typically represented less than 5% of the total binding. […] After drying, filter-retained radioactivity was detected by liquid scintillation counting. Ki values were calculated using Excel-Fit (Microsoft) and are the means of two determinations. […]
Background: Loss of bound radioactivity is the signal in a displacement assay; it reports binding, not function.

Molecules are shown by their SMILES.

For orientation: Ki means a dissociation constant, usually derived from enzyme kinetics or from competition with a known ligand. Read a high Ki as lower affinity.

`Cc1onc(-c2ccccc2)c1-c1ncc2ccccn12` [Example 1, 3-(5-Methyl-3-phenyl-isoxazol-4-yl)-imidazo[1,5-a]pyridine]: the Ki stood at 77.9 nM.

(Values after patent publication US7399769B2, “Aryl-isoxazol-4-yl-imidazo[1,5-a]pyridine derivatives” (Hoffmann-La Roche Inc., priority 2005, dated 2008).)
